{"source": "patent US20110039787A1", "about": "“COMPOSITIONS, KITS AND METHODS FOR TREATING BENIGN PROSTATE HYPERPLASIA” (priority 2009, published 2011)", "key": {"men with BPH": {"tested_on": "men with BPH", "assay": "IPSS questionnaire (sum of scores), clinical trial in BPH patients", "type": "in vivo", "experimental": "(§1) For each patient, the following parameters were measured or assessed (using the methods discussed below), at time points of screening day 0 (e.g., −7 days, “baseline”), day 14, day 28, and day 42:\n(§2) After the initial 6-week treatment period of the exploratory study had been completed, a 12-month follow-up period looking at long-term efficacy commenced. Interim data of the main efficacy variables (IPSS, IPSS Global QoL, prostate volume, urinary flow, and post-void residual volume—measured as set out below) after 6 months' follow-up are also presented herein at Tables 1, 2, 3, and FIG. 1b. FIG. 1b also includes IPSS data at 9 and 12 months.\nThe IPSS was developed in 1991 by the American Urological Association to assess the severity of urinary symptoms related to BPH (Barry, M. J., et al., The American Urological Association symptom index for benign prostatic hyperplasia. The Measurement Committee of the American Urological Association. J Urol, 1992. 148(5): p. 1549-57; discussion 1564). The IPSS has been widely used in clinical studies, has undergone extensive validation, and its psychometric properties are well documented in both the original version (containing a 1-month recall) as well as the ‘acute’ version used in this study (containing a one-week recall). The WHO recommended the use of this instrument for the evaluation of BPH, and it is considered to be the internationally accepted, standard questionnaire for assessing lower urinary tract symptoms.\nThe patients completed the IPSS questionnaire to evaluate their urinary symptoms. The IPSS is a patient-administered questionnaire containing seven items to evaluate symptoms of urinary obstruction (i.e., incomplete emptying, frequency, hesitancy, urgency, weak stream, straining, nocturia) over the preceding week. Each urinary symptom question is assigned points from 0 to 5 indicating increasing severity of the particular symptom. The total score can therefore range from 0 to 35 (0-7: mildly symptomatic; 8-19: moderately symptomatic; 20-35: severely symptomatic). A reduction in total score over the treatment period is indicative of prostate symptom improvement."}, "prostate volume": {"tested_on": "prostate volume", "assay": "Prostate volume by transrectal ultrasound", "type": "in vivo, men", "experimental": "as §1\n2) Efficacy Endpoints—the measured Peak Urinary Flow, Post-void Residual Volume, and Prostate Volume.\nas §2\nThe prostate volume was measured by transrectal ultrasound with the patient in a lateral position. The prostatic gland was sonicated from two directions perpendicular to one another resulting in three cursor positions set by the urologist. The volume was calculated automatically. The investigations were performed by urologists by methods known in the art."}, "[1]": {"conditions": "16+16 mg, Month 6 follow up, n=6"}, "[2]": {"conditions": "32+32 mg, Month 6 follow up, n=7"}, "[3]": {"conditions": "all treatment groups (50 patients), Day 42"}, "[4]": {"conditions": "16+16 mg, Month 6 follow-up, n=6"}}, "note": "Square brackets hold non-standard residues; d marks the D form. Peptide text beside a SMILES is read from it. * marks the point of attachment. dPhe(4-NHCONH2) = NC(=O)Nc1ccc(C[C@@H](N)C(=O)O)cc1; Dihydroorotyl(S) = O=C1C[C@@H](C(=O)*)NC(=O)N1; dPhe(4-Cl) = N[C@H](Cc1ccc(Cl)cc1)C(=O)O; Phe(4-NH2) = Nc1ccc(C[C@H](N)C(=O)O)cc1; d2Nal = N[C@H](Cc1ccc2ccccc2c1)C(=O)O; Lys(iPr) = CC(C)NCCCC[C@H](N)C(=O)O; d3Pal = N[C@H](Cc1cccnc1)C(=O)O", "data": [{"smiles": "CC(=O)N[C@H](Cc1ccc2ccccc2c1)C(=O)N[C@H](Cc1ccc(Cl)cc1)C(=O)N[C@H](Cc1cccnc1)C(=O)N[C@@H](CO)C(=O)N[C@@H](Cc1ccc(NC(=O)[C@@H]2CC(=O)NC(=O)N2)cc1)C(=O)N[C@H](Cc1ccc(NC(N)=O)cc1)C(=O)N[C@@H](CC(C)C)C(=O)N[C@@H](CCCCNC(C)C)C(=O)N1CCC[C@H]1C(=O)N[C@H](C)C(N)=O", "note": "[Degarelix, D-Alaninamide, N-acetyl-3-(2-naphthalenyl)-D-alanyl-4-chloro-D-phenylalanyl-3-(3-pyridinyl)-D-alanyl-L-seryl-4-[[[(4S)-hexahydro-2,6-dioxo-4-pyrimidinyl]carbonyl]amino]-L-phenylalanyl-4-[(aminocarbonyl)amino]-D-phenylalanyl-L leucyl-N6-(1-methylethyl)-L-lysyl-L-prolyl] (Ac-[d2Nal][dPhe(4-Cl)][d3Pal]S[Phe(4-NH2)](Dihydroorotyl(S))[dPhe(4-NHCONH2)]L[Lys(iPr)]P[dA]-NH2)", "values": [{"measurement": "Improvements in mean sum of IPSS scores", "setting": "men with BPH; 32 mg and 32+32 mg groups, 9 and 12 months (FIG. 1b)", "result": "still indicated"}, {"measurement": "Mean change from baseline in IPSS score, mean (SD)", "setting": "men with BPH; 32 mg s.c. (Day 0), Day 14, N=12", "result": "−7.8 (8.7)"}, {"measurement": "Percentage responders (decrease in IPSS of at least 30% as compared to baseline)", "setting": "men with BPH; 32 mg, Day 42", "result": 92, "unit": "%"}, {"measurement": "Mean IPSS score, mean (SD)", "setting": "men with BPH; 32 mg, Day 42, N=12", "result": "9.1 (6.2)"}, {"measurement": "Mean change from baseline in IPSS score, mean (SD)", "setting": "men with BPH; 32 mg, Day 42, N=12", "result": "−13.2 (6.6)"}, {"measurement": "Mean change from baseline in IPSS score, mean (SD)", "setting": "men with BPH; 32 mg, Day 42, N=12, listed as degarelix", "result": "−13.2"}, {"measurement": "Mean IPSS score, mean (SD)", "setting": "men with BPH; 32 mg, Month 6 follow up, n=7", "result": "10.4 (6.3)"}, {"measurement": "Mean change from baseline in IPSS score, mean (SD)", "setting": "men with BPH; 32 mg, Month 6 follow up, n=7", "result": "−11.6 (8.3)"}, {"measurement": "Percentage responders (decrease in IPSS of at least 30% as compared to baseline)", "setting": "men with BPH; 32 mg, Month 6 follow up, n=7", "result": 86, "unit": "%"}, {"measurement": "Mean change from baseline in IPSS score, mean (SD)", "setting": "men with BPH; 64 mg s.c. (Day 0), Day 14, N=13", "result": "−8.0 (4.0)"}, {"measurement": "Percentage responders (decrease in IPSS of at least 30% as compared to baseline)", "setting": "men with BPH; 64 mg, Day 42", "result": 85, "unit": "%"}, {"measurement": "Mean IPSS score, mean (SD)", "setting": "men with BPH; 64 mg, Day 42, N=13", "result": "11.8 (5.9)"}, {"measurement": "Mean change from baseline in IPSS score, mean (SD)", "setting": "men with BPH; 64 mg, Day 42, N=13", "result": "−10.0 (5.0)"}, {"measurement": "Mean change from baseline in IPSS score, mean (SD)", "setting": "men with BPH; 64 mg, Day 42, N=13, listed as degarelix", "result": "−10.0"}, {"measurement": "Mean IPSS score, mean (SD)", "setting": "men with BPH; 64 mg, Month 6 follow up, n=4", "result": "16.0 (8.7)"}, {"measurement": "Mean change from baseline in IPSS score, mean (SD)", "setting": "men with BPH; 64 mg, Month 6 follow up, n=4", "result": "−4.0 (3.6)"}, {"measurement": "Mean change from baseline in IPSS score, mean (SD)", "setting": "men with BPH; 16+16 mg s.c. (Day 0 + Day 14), Day 14, N=13", "result": "−3.2 (5.4)"}, {"measurement": "Percentage responders (decrease in IPSS of at least 30% as compared to baseline)", "setting": "men with BPH; 16+16 mg, Day 42", "result": 54, "unit": "%"}, {"measurement": "Mean IPSS score, mean (SD)", "setting": "men with BPH; 16+16 mg, Day 42, N=13", "result": "11.6 (4.5)"}, {"measurement": "Mean change from baseline in IPSS score, mean (SD)", "setting": "men with BPH; 16+16 mg, Day 42, N=13", "result": "−6.1 (4.6)"}, {"measurement": "Mean change from baseline in IPSS score, mean (SD)", "setting": "men with BPH; 16+16 mg, Day 42, N=13, listed as degarelix", "result": "−6.1"}, {"measurement": "Mean IPSS score, mean (SD)", "setting": "men with BPH; [1]", "result": "16.3 (4.7)"}, {"measurement": "Mean change from baseline in IPSS score, mean (SD)", "setting": "men with BPH; [1]", "result": "−2.5 (4.3)"}, {"measurement": "Percentage responders (decrease in IPSS of at least 30% as compared to baseline)", "setting": "men with BPH; [1]", "result": 33, "unit": "%"}, {"measurement": "Mean change from baseline in IPSS score, mean (SD)", "setting": "men with BPH; 32+32 mg s.c. (Day 0 + Day 14), Day 14, N=12", "result": "−5.5 (5.0)"}, {"measurement": "Percentage responders (decrease in IPSS of at least 30% as compared to baseline)", "setting": "men with BPH; 32+32 mg, Day 42", "result": 83, "unit": "%"}, {"measurement": "Mean IPSS score, mean (SD)", "setting": "men with BPH; 32+32 mg, Day 42, N=12", "result": "8.6 (5.7)"}, {"measurement": "Mean change from baseline in IPSS score, mean (SD)", "setting": "men with BPH; 32+32 mg, Day 42, N=12", "result": "−9.6 (4.7)"}, {"measurement": "Mean change from baseline in IPSS score, mean (SD)", "setting": "men with BPH; 32+32 mg, Day 42, N=12, listed as degarelix", "result": "−9.6"}, {"measurement": "Mean IPSS score, mean (SD)", "setting": "men with BPH; [2]", "result": "6.7 (4.5)"}, {"measurement": "Mean change from baseline in IPSS score, mean (SD)", "setting": "men with BPH; [2]", "result": "−12.6 (9.6)"}, {"measurement": "Percentage responders (decrease in IPSS of at least 30% as compared to baseline)", "setting": "men with BPH; [2]", "result": 86, "unit": "%"}, {"measurement": "Number of patients categorised as \"mild\" (IPSS 0-7)", "setting": "men with BPH; [3]", "result": 17, "unit": "patients"}, {"measurement": "Number of patients categorised as \"moderate\" (IPSS 8-19)", "setting": "men with BPH; [3]", "result": 31, "unit": "patients"}, {"measurement": "Number of patients categorised as \"severe\" (IPSS 20-35)", "setting": "men with BPH; [3]", "result": 2, "unit": "patients"}, {"measurement": "Mean (SD) Prostate Volume", "setting": "prostate volume; 32 mg, Day 42, N=12", "result": "34.8 (14.2) mL"}, {"measurement": "Prostate Volume, Change from Baseline, mean (SD)", "setting": "prostate volume; 32 mg, Day 42, N=12", "result": "−13.9 (14.7) mL"}, {"measurement": "Prostate Volume, Percentage Change from Baseline, mean (SD)", "setting": "prostate volume; 32 mg, Day 42, N=12", "result": "−25.1 (18.0) %"}, {"measurement": "Mean (SD) Prostate Volume", "setting": "prostate volume; 32 mg, Month 6 follow-up, n=7", "result": "34.3 (13.9) mL"}, {"measurement": "Prostate Volume, Change from Baseline, mean (SD)", "setting": "prostate volume; 32 mg, Month 6 follow-up, n=7", "result": "−11.6 (5.1) mL"}, {"measurement": "Prostate Volume, Percentage Change from Baseline, mean (SD)", "setting": "prostate volume; 32 mg, Month 6 follow-up, n=7", "result": "−25.6 (8.0) %"}, {"measurement": "Mean (SD) Prostate Volume", "setting": "prostate volume; 64 mg, Day 42, N=13", "result": "30.6 (10.5) mL"}, {"measurement": "Prostate Volume, Change from Baseline, mean (SD)", "setting": "prostate volume; 64 mg, Day 42, N=13", "result": "−8.2 (10.2) mL"}, {"measurement": "Prostate Volume, Percentage Change from Baseline, mean (SD)", "setting": "prostate volume; 64 mg, Day 42, N=13", "result": "−19.7 (23.2) %"}, {"measurement": "Mean (SD) Prostate Volume", "setting": "prostate volume; 64 mg, Month 6 follow-up, n=4", "result": "29.0 (3.4) mL"}, {"measurement": "Prostate Volume, Change from Baseline, mean (SD)", "setting": "prostate volume; 64 mg, Month 6 follow-up, n=4", "result": "−9.7 (10.4) mL"}, {"measurement": "Prostate Volume, Percentage Change from Baseline, mean (SD)", "setting": "prostate volume; 64 mg, Month 6 follow-up, n=4", "result": "−21.5 (20.6) %"}, {"measurement": "Mean (SD) Prostate Volume", "setting": "prostate volume; 16+16 mg, Day 42, N=13", "result": "34.5 (11.0) mL"}, {"measurement": "Prostate Volume, Change from Baseline, mean (SD)", "setting": "prostate volume; 16+16 mg, Day 42, N=13", "result": "−7.5 (7.7) mL"}, {"measurement": "Prostate Volume, Percentage Change from Baseline, mean (SD)", "setting": "prostate volume; 16+16 mg, Day 42, N=13", "result": "−17.0 (16.7) %"}, {"measurement": "Mean (SD) Prostate Volume", "setting": "prostate volume; [4]", "result": "29.6 (10.4) mL"}, {"measurement": "Prostate Volume, Change from Baseline, mean (SD)", "setting": "prostate volume; [4]", "result": "−11.2 (4.4) mL"}, {"measurement": "Prostate Volume, Percentage Change from Baseline, mean (SD)", "setting": "prostate volume; [4]", "result": "−27.8 (8.7) %"}, {"measurement": "Mean (SD) Prostate Volume", "setting": "prostate volume; 32+32 mg, Day 42, N=12", "result": "28.7 (8.2) mL"}]}]}
